{"source": "patent US11160826B1", "about": "“Cholesterol lowering drugs for the treatment of hepatic encephalopathy” (United States Government as represented by the Department …, priority 2017, dated 2021)", "key": {"[1]": {"test_system": "Cyp46A1", "assay": "Expression of Cyp46A1 in primary cortical neuronal culture", "assay_type": "cell-based, mouse", "conditions": "10 μM with 10 μM DCA, 24 hr", "description": "Primary cortical neurons were isolated and cultured using methodology previously described (McMillin, M. et al. (2014) Journal of hepatology 61(6): 1260-6). Primary neurons were isolated from P1 mouse pups. Mice were decapitated and whole brains were removed. The cortex was isolated and meninges and dura were removed. Cortical tissue was mechanically disrupted and filtered through a 100 μm filter. Neurons were pelleted by centrifugation at 1400 g. Neurons were suspended in media and plated on 12-well plates with 750,000 cells per well. After 24 hours, cells were washed and media was replaced and supplemented with 2% B27 growth supplement. […] At this point, cells were lysed and used for immunoblot or RTPCR analyses.\nRNA was extracted from tissue or primary neurons using an RNeasy Mini Kit (Qiagen, Germantown, Md.) according to the manufacturer's instructions. Synthesis of cDNA was accomplished using a Bio-Rad iScript™ cDNA Synthesis Kit. […]\nSpecific antibodies against Cyp46A1 and β-actin were used. […] Data are expressed as fold change in fluorescent band intensity of target antibody divided by β-actin or GAPDH, which are used as loading controls. […] Band intensity quantifications were performed using ImageJ software."}, "[2]": {"test_system": "AOM-induced liver damage", "assay": "Assessment of liver damage and function (H&E, plasma ALT, AST)", "assay_type": "in vivo, C57Bl/6 mice", "conditions": "20 hour post-AOM injection; central (ICV) infusion", "experimental": "Acute liver failure and HE was induced using the hepatotoxin azoxymethane (AOM) as previously described (McMillian, M. et al. (2016) Am. J. Pathol. 186(2): 312-23; McMillin, M. et al. Front Cell Neurosci. (2017) 11: 191; McMillin, M. et al. (2014) Journal of Hepatology 6(1): 1260-6; McMillin, M. et al. (2016) J. Neuroinflammation 13(1): 198). Briefly, C57Bl/6 or Cyp7A1−/− mice were injected with AOM (100 mg/kg ip) and placed on heating pads set to 37° C. to ensure normothermia. To reduce serum and cortical bile acid levels, C57Bl/6 mice were fed a diet supplemented with 2% cholestyramine (Dyets Inc.; Bethelhem, Pa.), or the control diet AIN-93G, for 3 days prior to the injection of AOM. […] This same approach was used to infuse 2-hydroxypropyl-β-cyclodextrin (2-HβC; 6 mg/kg/day, MilliporeSigma) to inhibit cholesterol accumulation. The infusion cannulas were implanted using the co-ordinates AP −0.34, ML −1.0, DV −2.0. […]\nLiver damage was assessed by H&E staining according to previously published protocols (McMillin, M. et al. (2017) Front Cell Neurosci. 11: 191). […]\nLiver function was assessed by measuring plasma alanine aminotransferase (ALT) and aspartate aminotransferase (AST) using the IDEXX Catalyst One machine from IDEXX Laboratories, Inc (Westbrook, […].)."}, "[3]": {"test_system": "AOM-induced acute liver failure", "assay": "DigiGait ventral plane gait analysis of AOM-treated mice", "assay_type": "in vivo, C57Bl/6 mice", "conditions": "approximately 16 hours after AOM injection", "experimental": "(§1) Acute liver failure and HE was induced using the hepatotoxin azoxymethane (AOM) as previously described (McMillian, M. et al. (2016) Am. J. Pathol. 186(2): 312-23; McMillin, M. et al. Front Cell Neurosci. (2017) 11: 191; McMillin, M. et al. (2014) Journal of Hepatology 6(1): 1260-6; McMillin, M. et al. (2016) J. Neuroinflammation 13(1): 198). Briefly, C57Bl/6 or Cyp7A1−/− mice were injected with AOM (100 mg/kg ip) and placed on heating pads set to 37° C. to ensure normothermia. To reduce serum and cortical bile acid levels, C57Bl/6 mice were fed a diet supplemented with 2% cholestyramine (Dyets Inc.; Bethelhem, Pa.), or the control diet AIN-93G, for 3 days prior to the injection of AOM. […] This same approach was used to infuse 2-hydroxypropyl-β-cyclodextrin (2-HβC; 6 mg/kg/day, MilliporeSigma) to inhibit cholesterol accumulation. The infusion cannulas were implanted using the co-ordinates AP −0.34, ML −1.0, DV −2.0. This surgery was performed 3 days prior to the injection of AOM to allow the mice to recover prior to the onset of acute liver failure to minimize mortality.\nStarting at 12 hr after injection, mice were monitored at least every 2 hours for body temperature, weight and neurological score as previously described (McMillin, M. et al. Front Cell Neurosci. (2017) 11: 191; McMillin, M. et al. (2016) J. Neuroinflammation 13(1): 198). The neurological score was assessed by an investigator blind to the treatment groups and is a summation of the scores given for the following parameters: pinna reflex, corneal reflex, tail flexion, escape response, righting reflex and gait. […] These paw prints were analyzed using DigiGait Analysis and Imager software (Mouse Specifics Inc, Framingham, Mass., USA) and measures of neuromuscular function were quantified, including the paw angle in fore- and hind limbs (to measure the degree of external rotation), gait symmetry (ratio of forelimb stepping frequency to hindlimb stepping frequency) and the ataxia coefficient for fore and hind limbs (calculated by [maximum stride length−minimum stride length]/average stride length)."}, "[4]": {"test_system": "cholesterol", "assay": "Measurement of brain cholesterol (total/free kit, Nile Red, Filipin III staining)", "assay_type": "in vivo, C57Bl/6 mice", "experimental": "as §1\nTotal, free and esterified cholesterol was assessed in brain homogenates using a BioVision Total Cholesterol and Cholesteryl Ester Assay Kit following the instructions from the vendor. The subcellular location of cholesterol was assessed using Nile Red staining (for intracellular cholesterol (Pol, A. et al. (2001) J. Cell Biol. 152(5): 1057-70)) and Filipin III staining (for membrane bound cholesterol (Vanier and Latour (2015) Methods Cell Biol. 126: 357-75)). Briefly, mice were transcardially perfused with ice-cold phosphate buffered saline (PBS), followed by 4% paraformaldehyde (PFA) in PBS. Whole brains were rapidly removed and post-fixed in PFA overnight at 4° C. Brains were cryoprotected in 30% sucrose (in PBS) and embedded in OCT compound. Thirty micrometer sections were cut through the frontal cortex region; sections were rinsed in PBS and further fixed in 4% PFA for 10 minutes at room temperature. Free-floating sections were incubated with Filipin III (0.5 μg/mL in 10% bovine serum albumin/PBS) for 2 hours at room temperature, or with Nile Red (10 μg/mL in PBS) for 30 minutes at room temperature. Sections were washed in PBS, mounted onto microscope slides and imaged using a Bio-Rad Zoe™ Fluorescent Cell Imager (Hercules, Calif.). Field images were quantified for percent-positive area of Nile Red or Filipin III staining using ImageJ software (National Institutes of Health, Bethesda, Md.)."}, "[5]": {"test_system": "models of Niemann-Pick Type C disease", "conditions": "Davidson et al. 2009; cited from earlier work"}, "[6]": {"test_system": "AOM-induced acute liver failure", "assay": "Neurological score and time to coma in the AOM mouse model of acute liver failure / hepatic encephalopathy", "assay_type": "in vivo, C57Bl/6 mice", "conditions": "ICV infusion started 3 days prior to AOM; for neurological decline (neurological score): AOM-treated mice (100 mg/kg ip), 100 mg/kg; for time taken to reach hepatic coma: AOM-treated mice", "experimental": "as §1\nStarting at 12 hr after injection, mice were monitored at least every 2 hours for body temperature, weight and neurological score as previously described (McMillin, M. et al. Front Cell Neurosci. (2017) 11: 191; McMillin, M. et al. (2016) J. Neuroinflammation 13(1): 198). The neurological score was assessed by an investigator blind to the treatment groups and is a summation of the scores given for the following parameters: pinna reflex, corneal reflex, tail flexion, escape response, righting reflex and gait. Each parameter was assigned a score between 2 (normal) and 0 (absence of reflexes and presence of severe ataxia), and summed to give a neurological score out of 12. At approximately 16 hours after AOM injection, the gait of these experimental mice was further examined using ventral plane imaging technology (DigiGait, Mouse Specifics Inc, Framingham, Mass., USA) which images the underside of animals walking atop a motorized, transparent treadmill belt thereby generating digital paw prints. These paw prints were analyzed using DigiGait Analysis and Imager software (Mouse Specifics Inc, Framingham, Mass., USA) and measures of neuromuscular function were quantified, including the paw angle in fore- and hind limbs (to measure the degree of external rotation), gait symmetry (ratio of forelimb stepping frequency to hindlimb stepping frequency) and the ataxia coefficient for fore and hind limbs (calculated by [maximum stride length−minimum stride length]/average stride length). […]"}, "[7]": {"test_system": "AOM-induced acute liver failure", "conditions": "mouse model of acute liver failure, McMillin et al. 2016; cited from earlier work"}, "[8]": {"conditions": "AOM-treated mice, coma time point, pretreatment from 3 days prior to AOM"}, "[9]": {"conditions": "listed as 2-hydroxypropyl-cyclodextrin"}}, "note": "“Also recorded” adds a separate entry of the source.", "data": [{"compound": "C/C=C1\\C(=O)C[C@H]2[C@@H]3CCC4=CC(=O)CC[C@]4(C)[C@H]3CC[C@]12C", "note": "[guggulsterone, Guggulsterone]", "values": [{"measurement": "DCA-induced decrease of Cyp46A1 expression in primary neurons", "setting": "[1]", "result": "could be prevented by pre-treatment"}]}, {"compound": "2-hydroxypropyl-β-cyclodextrin [2-HβC]", "values": [{"measurement": "AOM-induced liver damage (H&E staining, ALT, AST)", "setting": "[2]", "result": "does not have any hepatoprotective effects; also recorded: does not influence liver function"}, {"measurement": "ataxia co-efficient of fore and hind limbs", "setting": "[3]", "result": "returned the ataxia co-efficient back to control levels"}, {"measurement": "gait symmetry (ratio of forelimb to hind limb stepping frequency)", "setting": "[3]", "result": "returned the gait symmetry to control levels"}, {"measurement": "paw angle of fore and hind limbs (degree of external rotation)", "setting": "[3]", "result": "reduced the paw angle of AOM-treated mice to values similar to control"}, {"measurement": "cortex cholesterol accumulation", "setting": "[4]; AOM-treated mice, FIG. 17 legend", "result": "reduced"}, {"measurement": "AOM-induced increase in Filipin III staining (membrane-bound cholesterol) in the cortex", "setting": "[4]; [8]", "result": "attenuated the AOM-induced increase"}, {"measurement": "AOM-induced increase in Nile Red staining (intracellular cholesterol) in the cortex", "setting": "[4]; [8]", "result": "attenuated the AOM-induced increase"}, {"measurement": "AOM-induced increase in free cholesterol content in the cortex", "setting": "[4]; [8]", "result": "did prevent the AOM-induced buildup"}, {"measurement": "AOM-induced increase in total cholesterol content in the cortex", "setting": "[4]; [8]", "result": "did prevent the AOM-induced buildup"}, {"measurement": "basal levels of cholesterol in the cortex", "setting": "[4]; vehicle-treated mice, infusion into the brain", "result": "did not decrease"}, {"measurement": "excessive cholesterol buildup in the brain", "setting": "[5]", "result": "prevent excessive cholesterol buildup in the brain"}, {"measurement": "neurological decline (neurological score)", "setting": "[6]", "result": "significantly delayed the neurological decline; also recorded: reduces neurological decline"}, {"measurement": "neurological decline (neurological score)", "setting": "[6]; [9]", "result": "dramatically delayed the onset of neurological complications"}, {"measurement": "time taken to reach hepatic coma", "setting": "[6]", "result": "increased the time taken to reach hepatic coma"}, {"measurement": "time taken to reach hepatic coma", "setting": "[6]; [9]", "result": "increased the time it took the mice to reach hepatic coma"}]}, {"compound": "C[C@H](CCC(=O)O)[C@H]1CC[C@H]2[C@@H]3[C@H](O)C[C@@H]4C[C@H](O)CC[C@]4(C)[C@H]3C[C@H](O)[C@]12C", "note": "[cholic acid]", "values": [{"measurement": "neurological decline associated with acute liver failure (previous studies)", "setting": "[7]", "result": "worsened the neurological decline"}]}]}
